Results on 18 compounds are retold here after patent US20170253601A1, “Substituted Pyrrolidine Compounds” (EPIZYME, INC., priority 2014, published 2017).

Structures are written as SMILES.

T1 sequence (Q9NRG4 whole entry): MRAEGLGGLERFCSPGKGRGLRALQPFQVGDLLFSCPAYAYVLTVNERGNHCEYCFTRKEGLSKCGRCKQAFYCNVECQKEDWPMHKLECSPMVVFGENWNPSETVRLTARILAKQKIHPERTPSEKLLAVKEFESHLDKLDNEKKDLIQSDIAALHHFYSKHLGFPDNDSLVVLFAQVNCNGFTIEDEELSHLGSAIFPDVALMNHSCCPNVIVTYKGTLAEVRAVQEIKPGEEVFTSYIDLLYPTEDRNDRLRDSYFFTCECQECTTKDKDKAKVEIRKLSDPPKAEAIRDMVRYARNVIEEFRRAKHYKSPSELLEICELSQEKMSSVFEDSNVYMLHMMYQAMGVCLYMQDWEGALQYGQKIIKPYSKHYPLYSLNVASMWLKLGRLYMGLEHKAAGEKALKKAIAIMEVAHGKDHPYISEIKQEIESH

The first assay concerns the target T1, SMYD2 (Homo sapiens, UniProt Q9NRG4).
T1 construct: Full length SMYD2 (NP 064582.2) was cloned; His6 (N, cleaved yes); FLAG (N); made in house; host or cells: Sf9 insect cells
The assay is described as follows: SMYD2 Biochemical Assay (3H-SAM, biotinylated peptide substrate, Flashplate). The conditions noted are these: IC50 values are an average of n = 1 to n = 50; read-out: SMYD2 Biochem IC50 (μM)*. Put shortly: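 Full-length His/FLAG-tagged SMYD2 expressed in Sf9 cells with tag cleaved, 1.5 nM, pre-incubated 30 min at room temperature with compound, then 10 nM 3H-SAM and 60 nM biotinylated peptide added. Buffer 20 mM Bicine pH 7.6, 1 mM TCEP, 0.005% BSG, 0.002% Tween20, 2% DMSO. Stopped with 600 uM cold SAM; 3H-peptide captured on streptavidin Flashplate; IC50 by curve fit.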
In the case of `C[C@@H]1CN(CC2CCNC2)C[C@H]1NC(=O)c1cc(C2CC2)on1` (mixture of isomers) [compound 161, (±)-trans-5-cyclopropyl-N-[4-methyl-1-(pyrrolidin-3-ylmethyl)pyrrolidin-3-yl]-1,2-oxazole-3-carboxamide], the IC50 is over 50 µM.
Consider `COc1ccc(N2C[C@H](C)[C@H](NC(=O)c3cc(C4CC4)on3)C2)cc1` (racemic) [compound 308, (±)-cis-5-cyclopropyl-N-[1-(4-methoxy-phenyl)-4-methyl-pyrrolidin-3-yl]-1,2-oxazole-3-carboxamide], for which the IC50 is over 50 µM.
Still for that read-out and setting: then `C[C@@H]1CN(Cc2ccccc2)C[C@H]1NC(=O)c1cc(C2CC2)on1` (racemic) [compound 117, (±)-trans-N-(1-benzyl-4-methylpyrrolidin-3-yl)-5-cyclopropyl-1,2-oxazole-3-carboxamide], with over 50 µM; and `C[C@H]1CN(c2cnccn2)C[C@H]1NC(=O)c1cc(C2CC2)on1` (racemic) [compound 302, (±)-cis-5-cyclopropyl-N-[4-methyl-1-(pyrazin-2-yl)pyrrolidin-3-yl]-1,2-oxazole-3-carboxamide], with over 50 µM; and `C[C@H]1CN(Cc2ccc3c(c2)OCCN3C)C[C@H]1NC(=O)c1cc(C2CC2)on1` (racemic) [compound 289, (±)-cis-5-cyclopropyl-N-{4-methyl-1-[(4-methyl-3,4-dihydro-2H-1,4-benzoxazin-7-yl)methyl]pyrrolidin-3-yl}-1,2-oxazole-3-carboxamide], with 6.08 µM.
Still for that read-out and setting: in the case of `CCOC(=O)C1CC1CN1C[C@H](C)[C@H](NC(=O)c2cc(C3CC3)on2)C1` (stereo in doubt) [compound 176, cis-ethyl 2-{[3-(5-cyclopropyl-1,2-oxazole-3-amido)-4-methylpyrrolidin-1-yl]methyl}cyclopropane-1-carboxylate] it was 5.28 µM; in that of `CC(C)N1C[C@H](C)[C@H](NC(=O)c2cc(C#N)on2)C1` (racemic) [compound 341, (±)-cis-5-cyano-N-[4-methyl-1-(propan-2-yl)pyrrolidin-3-yl]-1,2-oxazole-3-carboxamide], 22.8 µM; in that of `CC(=O)Nc1ccccc1N1C[C@@H](C)[C@H](NC(=O)c2cc(C3CC3)on2)C1` (racemic) [compound 295, (±)-trans-5-cyclopropyl-N-[1-(2-acetamido-phenyl)-4-methylpyrrolidin-3-yl]-1,2-oxazole-3-carboxamide], over 50 µM.
Consider `CN1C[C@H](NC(=O)c2cc(C3CC3)on2)[C@H](C(C)(C)C)C1` (racemic) [compound 257, (±)-cis-N-[4-tert-butyl-1-methylpyrrolidin-3-yl]-5-cyclopropyl-1,2-oxazole-3-carboxamide], for which the IC50 was over 50 µM.
As for `CN1C[C@@H](C(F)(F)F)[C@H](NC(=O)c2cc(C3CC3)on2)C1` (racemic) [compound 251, (±)-trans-5-cyclopropyl-N-[1-methyl-4-(trifluoro-methyl)pyrrolidin-3-yl]-1,2-oxazole-3-carboxamide], the IC50 is over 50 µM.
Still for that read-out and setting: in the case of `CC(N1C[C@H](C)[C@H](NC(=O)c2cc(C3CC3)on2)C1)C(F)(F)F` (stereo in doubt) [compound 285, trans-5-cyclopropyl-N-[4-methyl-1-(1,1,1-trifluoropropan-2-yl)pyrrolidin-3-yl]-1,2-oxazole-3-carboxamide] it was over 50 µM.

Still in this assay, the particulars now being: Table 1; average of n = 1 to n = 50; read-out: SMYD2 Biochem IC50.
Consider `O=C(NC1CCN(C2CC2)C1)c1cc(C2CC2)on1` (stereo not drawn) [compound 36, 5-cyclopropyl-N-(1-cyclopropylpyrrolidin-3-yl)isoxazole-3-carboxamide], for which the IC50 came to 32.5 µM.
The same measure, in the same setting: then `C[C@@H]1CNC[C@H]1NC(=O)c1cc(C2CC2)on1` (racemic) [compound 43, (±)-trans-5-cyclopropyl-N-(4-methyl-pyrrolidin-3-yl)isoxazole-3-carboxamide], with over 50 µM.

Still in this assay, the particulars now being: Table 2; average of n = 1 to n = 50; read-out: SMYD2 Biochem IC50.
As for `C[C@H]1CN(C(=O)C2CCNCC2)C[C@H]1NC(=O)c1cc(C2CC2)on1` (racemic) [compound 70, (±)-cis-5-cyclopropyl-N-(4-methyl-1-(piperidine-4-carbonyl)pyrrolidin-3-yl)isoxazole-3-carboxamide], the IC50 was over 50 µM.
As for `CCN1C[C@@H](C)[C@H](NC(=O)c2cc(C3CC3)on2)C1` (racemic) [compound 88, (±)-trans-5-cyclopropyl-N-(1-ethyl-4-methylpyrrolidin-3-yl)isoxazole-3-carboxamide], the IC50 is 34.2 µM.
In the case of `C[C@@H]1CN(Cc2cccnc2)C[C@H]1NC(=O)c1cc(C2CC2)on1` (racemic) [compound 84, (±)-trans-5-cyclopropyl-N-(4-methyl-1-(pyridin-3-ylmethyl)pyrrolidin-3-yl)isoxazole-3-carboxamide], the IC50 was over 50 µM.
The same measure, in the same setting: in the case of `C[C@@H]1CN(C2CCOCC2)C[C@@H]1NC(=O)c1cc(C2CC2)on1` (racemic) [compound 73, (±)-cis-5-cyclopropyl-N-(4-methyl-1-(tetrahydro-2H-pyran-4-yl)pyrrolidin-3-yl)isoxazole-3-carboxamide] it was 40.7 µM.

The next assay relates to esophageal, liver and breast cancer cell lines.
Assay: not given
The conditions noted are these: several esophageal, dose-dependent; cited from earlier work.
`Cc1cn(CCN2CCN(c3ccccc3-c3cc(C#N)cc(C(=O)NCCCN4CCCC4)c3)CC2)c2ccccc12` [LLY-507]: the “inhibition of proliferation of cancer cell lines” value is “inhibited the proliferation”.
